Results taken from ChEMBL document CHEMBL1909046, “DrugMatrix in vitro pharmacology data”.
pIC50, pKi: −log10 of the molar value.

Tests used:
[1] = target: T1, Neuropeptide Y receptor type 1 (Homo sapiens, UniProt P25929); assay type: cell membranes, Membrane; conditions: sk-n-mc; further: in other assays of this panel Not Active means under 50% inhibition at 10 µM
T1 sequence (P25929 whole entry): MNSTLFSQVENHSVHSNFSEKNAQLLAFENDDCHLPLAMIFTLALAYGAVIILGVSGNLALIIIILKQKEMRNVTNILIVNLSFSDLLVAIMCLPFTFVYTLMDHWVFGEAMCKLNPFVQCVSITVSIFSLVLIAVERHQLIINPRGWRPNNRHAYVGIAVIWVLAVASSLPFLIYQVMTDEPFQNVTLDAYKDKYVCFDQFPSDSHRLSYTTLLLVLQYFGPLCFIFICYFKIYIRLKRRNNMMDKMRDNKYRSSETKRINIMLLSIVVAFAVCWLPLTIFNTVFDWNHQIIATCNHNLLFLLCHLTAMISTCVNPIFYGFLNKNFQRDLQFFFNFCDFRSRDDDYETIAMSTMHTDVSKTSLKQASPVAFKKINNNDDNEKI

[2] = target: T2, Amine oxidase [flavin-containing] A (Homo sapiens, UniProt P21397); test: DRUGMATRIX: Monoamine Oxidase MAO-A enzyme inhibition (substrate: Kynuramine); set-up: species or system BTI-TN-5B1-4; conditions: bti-tn-5b1-4; Not Active = under 50% inhibition at 10 µM
T2 sequence (P21397 whole entry): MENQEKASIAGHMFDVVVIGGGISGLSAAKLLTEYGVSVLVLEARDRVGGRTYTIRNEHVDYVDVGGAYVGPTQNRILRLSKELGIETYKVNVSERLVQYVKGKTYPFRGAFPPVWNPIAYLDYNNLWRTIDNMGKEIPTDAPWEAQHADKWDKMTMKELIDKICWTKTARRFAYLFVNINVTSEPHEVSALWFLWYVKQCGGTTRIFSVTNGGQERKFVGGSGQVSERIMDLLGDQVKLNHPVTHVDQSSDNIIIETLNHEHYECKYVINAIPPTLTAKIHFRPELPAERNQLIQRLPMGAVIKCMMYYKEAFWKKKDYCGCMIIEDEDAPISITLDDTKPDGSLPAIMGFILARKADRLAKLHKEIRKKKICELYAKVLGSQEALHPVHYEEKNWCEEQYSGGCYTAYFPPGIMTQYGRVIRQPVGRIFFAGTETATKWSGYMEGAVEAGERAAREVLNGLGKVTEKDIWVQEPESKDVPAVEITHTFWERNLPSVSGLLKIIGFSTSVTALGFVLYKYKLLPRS

[3] = target: T3, Alpha-2A adrenergic receptor (Homo sapiens, UniProt P08913); assay type: cell membranes, Sf9, Membrane; conditions: for IC50: sf9; for pIC50: read-out: IC50; for pKi: read-out: Ki; on all read-outs here: in other assays of this panel Not Active means under 50% inhibition at 10 µM
T3 sequence (P08913 whole entry): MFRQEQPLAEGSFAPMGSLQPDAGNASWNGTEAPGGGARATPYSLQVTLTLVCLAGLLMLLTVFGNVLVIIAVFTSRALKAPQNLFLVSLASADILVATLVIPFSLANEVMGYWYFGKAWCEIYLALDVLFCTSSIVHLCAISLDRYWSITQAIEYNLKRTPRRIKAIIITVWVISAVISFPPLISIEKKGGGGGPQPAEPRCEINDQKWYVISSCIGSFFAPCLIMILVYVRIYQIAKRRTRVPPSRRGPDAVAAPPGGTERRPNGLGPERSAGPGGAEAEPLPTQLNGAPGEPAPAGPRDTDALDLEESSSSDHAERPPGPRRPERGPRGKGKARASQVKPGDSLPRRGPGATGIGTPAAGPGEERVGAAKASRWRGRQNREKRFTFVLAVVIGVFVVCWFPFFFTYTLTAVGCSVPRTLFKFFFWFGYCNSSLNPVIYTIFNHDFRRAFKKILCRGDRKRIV

[4] = target: T4, Endothelin-1 receptor (Homo sapiens, UniProt P25101); assay type: cell membranes, CHO-K1, Membrane; conditions: for IC50: cho-k1; on all read-outs here: in other assays of this panel Not Active means under 50% inhibition at 10 µM
T4 sequence (P25101 whole entry): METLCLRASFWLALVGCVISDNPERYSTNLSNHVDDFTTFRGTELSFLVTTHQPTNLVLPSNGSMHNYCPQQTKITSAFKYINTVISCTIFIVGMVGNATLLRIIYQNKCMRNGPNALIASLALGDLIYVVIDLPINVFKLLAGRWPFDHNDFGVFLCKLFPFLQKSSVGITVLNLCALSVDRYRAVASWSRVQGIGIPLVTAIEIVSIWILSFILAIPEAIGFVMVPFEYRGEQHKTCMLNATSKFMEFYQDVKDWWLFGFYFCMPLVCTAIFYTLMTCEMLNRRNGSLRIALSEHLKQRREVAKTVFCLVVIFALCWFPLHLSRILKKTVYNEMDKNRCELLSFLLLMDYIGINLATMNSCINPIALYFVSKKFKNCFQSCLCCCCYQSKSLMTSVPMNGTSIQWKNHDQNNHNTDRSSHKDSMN

[5] = target: Tyrosine-protein kinase Lck (Homo sapiens, UniProt P06239); test: DRUGMATRIX: Protein Tyrosine Kinase, LCK enzyme inhibition (substrate: Poly(Glu:Tyr)); assay type: cell-based, Insect cells; conditions: Not Active = under 50% inhibition at 10 µM; for IC50: insect cells
Tyrosine-protein kinase Lck, sequence (P06239 whole entry): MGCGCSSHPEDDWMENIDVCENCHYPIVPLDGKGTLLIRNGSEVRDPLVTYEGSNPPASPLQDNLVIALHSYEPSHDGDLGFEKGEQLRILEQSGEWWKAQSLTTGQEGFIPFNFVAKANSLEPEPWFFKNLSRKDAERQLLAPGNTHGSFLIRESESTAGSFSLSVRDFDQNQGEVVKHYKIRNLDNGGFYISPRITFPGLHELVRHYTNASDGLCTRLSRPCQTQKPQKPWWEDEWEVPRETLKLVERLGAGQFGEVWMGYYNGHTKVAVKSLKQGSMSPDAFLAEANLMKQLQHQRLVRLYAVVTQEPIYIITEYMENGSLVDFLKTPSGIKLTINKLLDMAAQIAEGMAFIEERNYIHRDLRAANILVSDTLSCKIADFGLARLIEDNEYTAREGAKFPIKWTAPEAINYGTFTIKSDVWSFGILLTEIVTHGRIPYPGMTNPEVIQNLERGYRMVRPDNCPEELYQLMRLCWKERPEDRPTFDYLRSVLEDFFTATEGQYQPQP

SMILES	IC50 [1]	IC50 [2]	IC50 [3]	IC50 [4]	IC50 [5]	pIC50 ([4]; read-out: IC50)	pKi ([4]; read-out: Ki)	pIC50 [3]	pKi [3]	pIC50 ([5]; read-out: IC50)
COc1cc(N)nc2[nH]c(-c3ccc(F)cc3)c(-c3ccncc3)c12	Not Active	Not Active	Not Active	Not Active	–	–	–	–	–	–
CNS(=O)(=O)Cc1ccc2[nH]cc(CCN(C)C)c2c1	Not Active	Not Active	Not Active	Not Active	Not Active	–	–	–	–	–
CCCc1nn(C)c2c(=O)[nH]c(-c3cc(S(=O)(=O)N4CCN(C)CC4)ccc3OCC)nc12	Not Active	Not Active	Not Active	Not Active	Not Active	–	–	–	–	–
COc1ccc(/C=C/C(=O)Nc2ccccc2C(=O)O)cc1OC	Not Active	Not Active	Not Active	Not Active	Not Active	–	–	–	–	–
CCOC(N)=O	Not Active	Not Active	Not Active	Not Active	Not Active	–	–	–	–	–
CC(=O)Nc1nnc(S(N)(=O)=O)s1 [ACETAZOLAMIDE]	Not Active	Not Active	Not Active	Not Active	Not Active	–	–	–	–	–
O=c1[nH]c2ccccc2n1CCCN1CCC(n2c(=O)[nH]c3cc(Cl)ccc32)CC1 [DOMPERIDONE]	Not Active	Not Active	–	Not Active	Not Active	–	–	–	–	–
CC1=C(CC(=O)O)c2cc(F)ccc2/C1=C\c1ccc(S(C)(=O)=O)cc1 [EXISULIND]	Not Active	Not Active	Not Active	–	Not Active	5.01	5.22	–	–	–
CC(C)OC(=O)C(C)(C)Oc1ccc(C(=O)c2ccc(Cl)cc2)cc1 [FENOFIBRATE]	Not Active	Not Active	Not Active	Not Active	Not Active	–	–	–	–	–
OCCN1CCN(CCCN2c3ccccc3Sc3ccc(C(F)(F)F)cc32)CC1 [FLUPHENAZINE]	Not Active	Not Active	–	Not Active	Not Active	–	–	6.67	7.10	–
CN1C2CCCC1CC(NC(=O)c1nn(C)c3ccccc13)C2 (stereo not given) [GRANISETRON]	Not Active	Not Active	Not Active	Not Active	Not Active	–	–	–	–	–
Nc1nc2c(c(=O)[nH]1)N(C=O)C(CNc1ccc(C(=O)N[C@@H](CCC(=O)O)C(=O)O)cc1)CN2 (stereo not given in full) [LEUCOVORIN]	Not Active	Not Active	Not Active	Not Active	Not Active	–	–	–	–	–
C[C@@H](O)[C@H]1C(=O)N2C(C(=O)O)=C(S[C@@H]3CN[C@H](C(=O)N(C)C)C3)[C@H](C)[C@H]12 [MEROPENEM]	Not Active	Not Active	Not Active	Not Active	Not Active	–	–	–	–	–
CC[C@@H](CO)NC(=O)[C@@H]1C=C2c3cccc4c3c(cn4C)C[C@H]2N(C)C1 [METHYSERGIDE]	Not Active	Not Active	–	Not Active	Not Active	–	–	5.79	6.21	–
CCN(CC)CC#CCOC(=O)C(O)(c1ccccc1)C1CCCCC1 (stereo not given) [OXYBUTYNIN]	Not Active	Not Active	Not Active	Not Active	Not Active	–	–	–	–	–
O=P(O)(O)C(O)(Cc1cccnc1)P(=O)(O)O [RISEDRONIC ACID]	Not Active	Not Active	Not Active	Not Active	Not Active	–	–	–	–	–

SMILES	IC50 [1]	IC50 [2]	IC50 [3]	IC50 [4]	IC50 [5]	pIC50 ([4]; read-out: IC50)	pKi ([4]; read-out: Ki)	pIC50 [3]	pKi [3]	pIC50 ([5]; read-out: IC50)
CN(CCOc1ccc(CC2SC(=O)NC2=O)cc1)c1ccccn1 (stereo not given) [ROSIGLITAZONE]	Not Active	Not Active	Not Active	Not Active	Not Active	–	–	–	–	–
C=C(C)[C@H]1Cc2c(ccc3c2O[C@@H]2COc4cc(OC)c(OC)cc4[C@@H]2C3=O)O1 [ROTENONE]	Not Active	Not Active	Not Active	Not Active	Not Active	–	–	–	–	–
C#CCN(C)[C@H](C)Cc1ccccc1 [SELEGILINE]	Not Active	–	–	Not Active	Not Active	–	–	5.75	6.17	–
CO[C@H]1C[C@@H]2CC[C@@H](C)[C@@](O)(O2)C(=O)C(=O)N2CCCC[C@H]2C(=O)O[C@H]([C@H](C)C[C@@H]2CC[C@@H](O)[C@H](OC)C2)CC(=O)[C@H](C)/C=C(\C)[C@@H](O)[C@@H](OC)C(=O)[C@H](C)C[C@H](C)/C=C/C=C/C=C/1C [SIROLIMUS]	Not Active	Not Active	Not Active	Not Active	Not Active	–	–	–	–	–
CN[C@@H]1[C@H](O)[C@H](NC)[C@H]2O[C@@]3(O)C(=O)C[C@@H](C)O[C@H]3O[C@@H]2[C@H]1O [SPECTINOMYCIN]	Not Active	Not Active	Not Active	Not Active	Not Active	–	–	–	–	–
Nc1ccc(S(=O)(=O)Nc2ncccn2)cc1 [SULFADIAZINE]	Not Active	Not Active	Not Active	Not Active	Not Active	–	–	–	–	–
COc1ncnc(NS(=O)(=O)c2ccc(N)cc2)c1OC [SULFADOXINE]	Not Active	Not Active	Not Active	Not Active	Not Active	–	–	–	–	–
Nc1ccc(S(=O)(=O)Nc2nccs2)cc1 [SULFATHIAZOLE]	Not Active	Not Active	Not Active	Not Active	Not Active	–	–	–	–	–
C[C@]12CC[C@H]3[C@@H](CCC4=CC(=O)CC[C@@]43C)[C@@H]1CC[C@@H]2O [TESTOSTERONE]	Not Active	Not Active	Not Active	Not Active	Not Active	–	–	–	–	–
CC(C)(C)NC[C@H](O)COc1nsnc1N1CCOCC1 [TIMOLOL]	Not Active	Not Active	Not Active	Not Active	Not Active	–	–	–	–	–
CCS(=O)(=O)CCn1c([N+](=O)[O-])cnc1C [TINIDAZOLE]	Not Active	Not Active	Not Active	Not Active	Not Active	–	–	–	–	–
C[C@@H]1C[C@H]2[C@@H]3CCC4=CC(=O)C=C[C@]4(C)C3=CC[C@]2(C)[C@H]1C(=O)CN1CCN(c2cc(N3CCCC3)nc(N3CCCC3)n2)CC1 [TIRILAZAD]	Not Active	Not Active	Not Active	Not Active	–	–	–	–	–	4.80
NC[C@H]1O[C@H](O[C@H]2[C@H](O)[C@@H](O[C@H]3O[C@H](CO)[C@@H](O)[C@H](N)[C@H]3O)[C@H](N)C[C@@H]2N)[C@H](N)C[C@@H]1O [TOBRAMYCIN]	Not Active	Not Active	Not Active	Not Active	Not Active	–	–	–	–	–
O=c1n(CCCN2CCN(c3cccc(Cl)c3)CC2)nc2ccccn12 [TRAZODONE]	Not Active	Not Active	–	Not Active	Not Active	–	–	–	–	–
O=C(O)C(Cl)(Cl)Cl [TRICHLOROACETIC ACID]	Not Active	Not Active	Not Active	Not Active	Not Active	–	–	–	–	–
